According to patent EP4745138A1, “THIO-GLUTARIMIDO ISOINDOLINONE DERIVATIVE, BIFUNCTIONAL PROTEIN DEGRADER CONTAINING SAME, AND USES THEREOF” (Gluetacs Therapeutics (Shanghai) Co., Ltd., priority 2023, dated 2025):
Read-outs that look alike come from different tables or passages of the source.

Tests used:
A375 = test: Tumor cell proliferation inhibition (CellTiter-Meiluncell Luminescent Cell Viability Assay); format: cell-based; details: Homo sapiens, 96 hours, Table I-2, ALK inhibitors
Summary of the method: (§1)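 Cells were grown at 37°C under 5% CO2, seeded into 96-well plates, and dosed with compound on the next day. After a set treatment period, viability was read by luminescence with the CellTiter-Meiluncell reagent and IC50 values were derived. Final compound concentrations included 500 nM and 10 nM.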

CFPAC-1 = test: as above; format: cell-based; details: Homo sapiens, 96 hours, Table I-2, ALK inhibitors
Summary of the method: as §1

[1] = biological target: T1, human Cereblon WT GST-tagged protein (Homo sapiens, UniProt Q96SW2); test: CRBN-binding affinity, HTRF (CEREBLON BINDING kit); details: for inhibition at 0.5 µM: read-out: Inhibition Rate at 0.5 µM (%); for inhibition at 2 µM: read-out: Inhibition Rate at 2 µM (%); for IC50: CRBN binding, HTRF
T1 construct: purchased CISBIO 64BDCRBNPEH
Summary of the method: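 Competitive HTRF format: test compounds diluted in diluent #9 (1X) were combined with GST-tagged Cereblon, then a premixed thalidomide-red tracer plus anti-GST europium antibody; final compound concentrations were 2 µM and 0.5 µM. Blank wells received diluent and PROTAC binding buffer instead of compound and protein.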

WEE1 = test: Western blot, substrate protein degradation in hPBMC Cell; format: cell-based, Human; details: substrate protein remaining %, treated at 50 nM and 500 nM, 24 hours
Description: (§2) Conventional Western blot assay was performed to evaluate the effects of the compounds of the present disclosure on the expression of target proteins in cells.
(§3) (1) Cell Seeding and Protein Harvesting: The selected cells were processed according to the cell seeding procedure and protein harvesting procedure in Table II-2. Table II-2 Cell Seeding and Protein Harvesting Procedures
(§4) (2) To the collected supernatant, 5X SDS sample loading buffer was added, followed by denaturation at 95°C for 5 minutes. The denatured samples were then separated by SDS-PAGE electrophoresis on a polyacrylamide gel. Proteins were transferred to a nitrocellulose membrane (0.45 µm NC membrane), blocked with blocking buffer at room temperature for 1 hour, and subjected to antibody incubation and development procedures according to the antibody manufacturer's instructions (Cell Signaling Technology).
(§5) Half-Maximal Degradation Concentration value (the drug concentration required for degrading proteins by 50%, abbreviated as DC50) reads method: comparing the grayscale values of Western blot bands from drug-treated samples with those from blank DMSO-treated controls, and identifying the drug concentration range at which the grayscale value is half that of the DMSO-treated control bands.
(§6) DC50 values can be calculated using ImageJ software to measure grayscale values of Western blot bands from drug-treated samples. The concentration-response curve is fitted to estimate the drug concentration corresponding to half the grayscale value.
(§7) Target protein remaining (%) refers to the percentage of target protein remaining in cells after treatment with protein degrader compounds.
(§8) Calculation method for target protein remaining (%): Use ImageJ software to measure grayscale values of Western blot bands from drug (protein degrader)-treated samples. The grayscale value of drug-treated bands is divided by that of internal control protein bands, and the resulting quotient is normalized to obtain the relative percentage of remaining target protein after protein degrader treatment. Target protein degradation rate(%) = 1−target protein remaining(%). [formula]

CK1α = biological target: T2, CK1α (Homo sapiens, UniProt P48729+Q96SW2); test: as above; format: cell-based; details: substrate protein remaining %, treated at 50 nM and 500 nM, 24 hours
T2 construct: endogenous in cells; host or cells: hPBMC
T2 sequence (P48729 whole entry): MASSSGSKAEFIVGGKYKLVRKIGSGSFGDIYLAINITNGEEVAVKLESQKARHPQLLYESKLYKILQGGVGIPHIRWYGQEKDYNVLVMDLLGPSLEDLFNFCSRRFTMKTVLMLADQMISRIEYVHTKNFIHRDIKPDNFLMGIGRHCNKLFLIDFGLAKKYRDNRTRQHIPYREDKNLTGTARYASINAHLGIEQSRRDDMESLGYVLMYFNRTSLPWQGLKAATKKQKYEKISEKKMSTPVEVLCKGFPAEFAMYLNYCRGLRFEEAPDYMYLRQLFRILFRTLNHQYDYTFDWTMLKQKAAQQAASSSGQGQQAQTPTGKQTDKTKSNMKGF
T2 sequence (Q96SW2 whole entry): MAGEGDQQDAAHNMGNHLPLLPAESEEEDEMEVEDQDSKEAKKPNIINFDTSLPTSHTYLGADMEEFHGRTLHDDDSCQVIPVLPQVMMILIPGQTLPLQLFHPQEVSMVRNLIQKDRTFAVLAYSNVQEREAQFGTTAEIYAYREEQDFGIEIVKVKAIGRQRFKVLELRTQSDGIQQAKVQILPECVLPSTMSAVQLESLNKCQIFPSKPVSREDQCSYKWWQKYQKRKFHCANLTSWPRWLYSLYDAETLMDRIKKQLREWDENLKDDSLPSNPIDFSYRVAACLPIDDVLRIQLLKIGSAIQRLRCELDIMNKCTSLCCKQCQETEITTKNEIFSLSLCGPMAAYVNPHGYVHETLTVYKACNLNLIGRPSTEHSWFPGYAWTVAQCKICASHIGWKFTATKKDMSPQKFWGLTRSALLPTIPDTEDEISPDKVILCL
T2 sequence (Q16531 whole entry partner): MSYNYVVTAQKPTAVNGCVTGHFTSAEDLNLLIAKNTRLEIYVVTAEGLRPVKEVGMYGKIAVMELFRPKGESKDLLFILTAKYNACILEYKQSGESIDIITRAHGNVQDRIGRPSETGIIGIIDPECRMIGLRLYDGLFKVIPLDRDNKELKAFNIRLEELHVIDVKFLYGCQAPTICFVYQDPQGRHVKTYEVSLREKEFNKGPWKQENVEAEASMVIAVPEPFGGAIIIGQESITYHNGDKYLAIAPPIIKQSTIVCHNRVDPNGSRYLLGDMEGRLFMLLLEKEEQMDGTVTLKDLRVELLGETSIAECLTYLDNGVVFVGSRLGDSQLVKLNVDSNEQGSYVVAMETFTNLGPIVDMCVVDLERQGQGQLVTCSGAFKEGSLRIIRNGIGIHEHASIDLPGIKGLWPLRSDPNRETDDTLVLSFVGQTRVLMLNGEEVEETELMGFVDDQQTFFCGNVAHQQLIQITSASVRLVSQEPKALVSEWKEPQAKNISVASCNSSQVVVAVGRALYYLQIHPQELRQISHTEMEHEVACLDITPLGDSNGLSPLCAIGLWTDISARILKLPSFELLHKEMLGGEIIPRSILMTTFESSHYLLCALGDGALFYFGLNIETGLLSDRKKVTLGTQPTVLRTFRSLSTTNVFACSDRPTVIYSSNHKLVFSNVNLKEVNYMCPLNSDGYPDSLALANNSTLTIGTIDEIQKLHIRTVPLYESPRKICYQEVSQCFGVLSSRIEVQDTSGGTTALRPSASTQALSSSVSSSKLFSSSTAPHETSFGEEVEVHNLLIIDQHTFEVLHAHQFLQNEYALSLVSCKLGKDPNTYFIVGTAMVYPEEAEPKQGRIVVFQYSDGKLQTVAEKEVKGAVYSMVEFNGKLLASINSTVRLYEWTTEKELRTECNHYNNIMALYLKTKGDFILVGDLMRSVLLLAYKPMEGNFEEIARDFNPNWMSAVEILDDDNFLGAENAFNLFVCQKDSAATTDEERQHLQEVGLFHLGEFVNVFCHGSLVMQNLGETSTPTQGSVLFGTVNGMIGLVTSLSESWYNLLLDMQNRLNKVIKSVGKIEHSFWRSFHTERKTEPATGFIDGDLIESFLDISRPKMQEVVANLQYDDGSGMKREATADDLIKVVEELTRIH
Description: as §2, §3, §4, §5, §6, §7, §8

GSPT1 = biological target: T3, GSPT1 (Homo sapiens, UniProt P15170+Q96SW2); test: as above; format: cell-based; details: substrate protein remaining %, treated at 50 nM and 500 nM, 24 hours
T3 construct: endogenous in cells; host or cells: hPBMC
T3 sequence (P15170 whole entry): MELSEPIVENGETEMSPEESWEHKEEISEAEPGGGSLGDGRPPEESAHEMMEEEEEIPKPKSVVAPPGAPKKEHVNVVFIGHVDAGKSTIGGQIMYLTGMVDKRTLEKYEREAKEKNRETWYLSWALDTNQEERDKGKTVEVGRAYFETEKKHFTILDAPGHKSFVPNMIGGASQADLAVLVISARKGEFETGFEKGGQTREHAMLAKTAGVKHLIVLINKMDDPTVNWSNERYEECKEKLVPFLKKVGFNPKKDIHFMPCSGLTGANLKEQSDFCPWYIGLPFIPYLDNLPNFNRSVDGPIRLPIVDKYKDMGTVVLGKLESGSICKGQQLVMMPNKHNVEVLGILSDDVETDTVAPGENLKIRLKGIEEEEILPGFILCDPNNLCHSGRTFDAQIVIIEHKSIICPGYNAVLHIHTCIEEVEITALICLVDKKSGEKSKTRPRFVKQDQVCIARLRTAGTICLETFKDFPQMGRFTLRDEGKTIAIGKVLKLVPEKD
T3 sequence (Q96SW2 whole entry): as the sequence (Q96SW2 whole entry) above
T3 sequence (Q16531 whole entry partner): as the sequence (Q16531 whole entry partner) above
Description: as §2, §3, §4, §5, §6, §7, §8

IKZF1 = biological target: T4, IKZF1 (Homo sapiens, UniProt Q13422+Q96SW2); test: as above; format: cell-based; details: substrate protein remaining %, treated at 50 nM and 500 nM, 24 hours
T4 construct: endogenous in cells; host or cells: hPBMC
T4 sequence (Q13422 whole entry): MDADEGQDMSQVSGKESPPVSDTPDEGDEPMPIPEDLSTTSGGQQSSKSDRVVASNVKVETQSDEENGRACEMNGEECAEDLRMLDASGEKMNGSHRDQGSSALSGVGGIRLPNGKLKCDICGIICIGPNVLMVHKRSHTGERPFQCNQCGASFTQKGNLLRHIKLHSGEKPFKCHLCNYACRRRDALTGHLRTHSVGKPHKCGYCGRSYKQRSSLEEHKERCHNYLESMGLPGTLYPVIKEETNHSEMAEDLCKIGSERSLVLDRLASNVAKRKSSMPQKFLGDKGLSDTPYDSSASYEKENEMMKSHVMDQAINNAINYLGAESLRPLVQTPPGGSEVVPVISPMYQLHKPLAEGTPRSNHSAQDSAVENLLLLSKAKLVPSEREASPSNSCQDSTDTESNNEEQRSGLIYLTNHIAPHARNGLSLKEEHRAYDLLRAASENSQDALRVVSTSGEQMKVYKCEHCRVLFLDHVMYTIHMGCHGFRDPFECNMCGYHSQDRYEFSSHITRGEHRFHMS
T4 sequence (Q96SW2 whole entry): as the sequence (Q96SW2 whole entry) above
T4 sequence (Q16531 whole entry partner): as the sequence (Q16531 whole entry partner) above
Description: as §2, §3, §4, §5, §6, §7, §8

IKZF2 = biological target: T5, IKZF2 (Homo sapiens, UniProt Q96SW2+Q9UKS7); test: as above; format: cell-based; details: substrate protein remaining %, treated at 50 nM and 500 nM, 24 hours
T5 construct: endogenous in cells; host or cells: hPBMC
T5 sequence (Q9UKS7 whole entry): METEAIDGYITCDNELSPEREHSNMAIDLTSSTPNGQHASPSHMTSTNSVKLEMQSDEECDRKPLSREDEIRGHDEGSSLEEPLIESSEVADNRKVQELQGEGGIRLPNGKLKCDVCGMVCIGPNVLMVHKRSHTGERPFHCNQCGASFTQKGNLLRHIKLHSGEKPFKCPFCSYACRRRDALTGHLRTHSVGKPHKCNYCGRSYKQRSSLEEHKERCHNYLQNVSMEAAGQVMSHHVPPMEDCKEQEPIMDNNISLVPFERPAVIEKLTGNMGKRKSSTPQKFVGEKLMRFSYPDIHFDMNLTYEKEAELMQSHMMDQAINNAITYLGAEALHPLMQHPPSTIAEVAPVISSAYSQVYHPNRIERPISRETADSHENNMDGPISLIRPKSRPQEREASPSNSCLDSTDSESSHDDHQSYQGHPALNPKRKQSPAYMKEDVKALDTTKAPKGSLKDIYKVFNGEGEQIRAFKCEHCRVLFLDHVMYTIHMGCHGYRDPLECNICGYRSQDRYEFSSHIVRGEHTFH
T5 sequence (Q96SW2 whole entry): as the sequence (Q96SW2 whole entry) above
T5 sequence (Q16531 whole entry partner): as the sequence (Q16531 whole entry partner) above
Description: as §2, §3, §4, §5, §6, §7, §8

IKZF3 = biological target: T6, IKZF3 (Homo sapiens, UniProt Q96SW2+Q9UKT9); test: as above; format: cell-based; details: substrate protein remaining %, treated at 50 nM and 500 nM, 24 hours
T6 construct: endogenous in cells; host or cells: hPBMC
T6 sequence (Q9UKT9 whole entry): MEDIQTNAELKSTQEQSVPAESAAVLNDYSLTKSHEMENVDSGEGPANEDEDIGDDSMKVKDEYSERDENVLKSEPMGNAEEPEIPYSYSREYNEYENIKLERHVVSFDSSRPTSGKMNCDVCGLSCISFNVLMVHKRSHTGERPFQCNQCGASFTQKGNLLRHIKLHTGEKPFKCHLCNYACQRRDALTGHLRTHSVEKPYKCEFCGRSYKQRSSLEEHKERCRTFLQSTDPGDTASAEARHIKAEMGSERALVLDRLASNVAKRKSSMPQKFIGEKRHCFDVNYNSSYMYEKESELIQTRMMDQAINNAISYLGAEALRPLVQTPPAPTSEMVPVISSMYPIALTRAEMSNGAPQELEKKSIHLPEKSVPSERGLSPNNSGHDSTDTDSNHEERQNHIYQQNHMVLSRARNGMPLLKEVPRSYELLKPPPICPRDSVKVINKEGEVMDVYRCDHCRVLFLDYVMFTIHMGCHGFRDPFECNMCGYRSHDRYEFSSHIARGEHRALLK
T6 sequence (Q96SW2 whole entry): as the sequence (Q96SW2 whole entry) above
T6 sequence (Q16531 whole entry partner): as the sequence (Q16531 whole entry partner) above
Description: as §2, §3, §4, §5, §6, §7, §8

MV-4-11 = test: Tumor cell proliferation inhibition (CellTiter-Meiluncell Luminescent Cell Viability Assay); format: cell-based; details: Homo sapiens, 96 hours, Table I-9, CDK4/6 inhibitors
Summary of the method: (§9)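 Following overnight seeding, tumor cells received serial compound dilutions to final levels that included 10 nM and 500 nM. Viability was assessed by luminescence at the end of the specified exposure time. Cultures were kept at 37°C with 5% CO2.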

CDK4 = biological target: T7, CDK4 (Homo sapiens, UniProt P11802); test: Western blot, target protein degradation in MDA-MB-231 Cell; format: cell-based; details: substrate protein remaining %, treated at 500 nM and 50 nM, 24 hours
T7 construct: endogenous in cells; host or cells: MDA-MB-231
T7 sequence (P11802 whole entry): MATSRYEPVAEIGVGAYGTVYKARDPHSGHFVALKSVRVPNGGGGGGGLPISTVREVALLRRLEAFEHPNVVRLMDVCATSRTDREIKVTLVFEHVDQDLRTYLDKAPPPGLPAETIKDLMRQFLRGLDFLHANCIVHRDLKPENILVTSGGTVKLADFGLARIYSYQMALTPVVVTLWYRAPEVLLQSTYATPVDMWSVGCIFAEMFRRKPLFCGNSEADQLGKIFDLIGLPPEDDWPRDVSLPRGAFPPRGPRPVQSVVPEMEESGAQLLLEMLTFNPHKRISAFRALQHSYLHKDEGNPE
Description: as §2, §3, §4, §5, §6, §7, §8

CDK6 = biological target: T8, CDK6 (Homo sapiens, UniProt Q00534); test: as above; format: cell-based; details: substrate protein remaining %, treated at 500 nM and 50 nM, 24 hours
T8 construct: endogenous in cells; host or cells: MDA-MB-231
T8 sequence (Q00534 whole entry): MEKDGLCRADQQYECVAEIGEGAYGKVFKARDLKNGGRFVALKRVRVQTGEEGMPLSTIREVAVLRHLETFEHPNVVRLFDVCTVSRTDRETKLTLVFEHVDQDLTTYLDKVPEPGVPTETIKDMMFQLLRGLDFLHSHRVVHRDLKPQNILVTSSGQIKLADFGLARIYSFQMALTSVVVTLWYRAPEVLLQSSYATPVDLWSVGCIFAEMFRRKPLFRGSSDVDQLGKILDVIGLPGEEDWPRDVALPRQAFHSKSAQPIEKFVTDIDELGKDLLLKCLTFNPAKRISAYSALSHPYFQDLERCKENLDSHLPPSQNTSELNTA
Description: as §2, §3, §4, §5, §6, §7, §8

MM.1S = test: Tumor cell proliferation inhibition (CellTiter-Meiluncell Luminescent Cell Viability Assay); format: cell-based; details: MM.1S, 96 hours; for inhibition at 0.01 µM / inhibition at 0.5 µM: Homo sapiens, MM1.S; for inhibition at 0.01 µM: read-out: Inhibition Rate at 10 nM (%); for inhibition at 0.5 µM: 500 nM, read-out: Inhibition Rate at 500 nM (%)
Summary of the method: as §9

[2] = Table I-16, compounds of Formula (II)
[3] = 10 nM, Table I-16, compounds of Formula (II)

inhibition at 0.5 µM [1]	inhibition at 2 µM [1]	IC50 [1]	SMILES	Degradation of substrate protein WEE1 (WEE1)	Degradation of substrate protein CK1α (CK1α)	Degradation of substrate protein GSPT1 (GSPT1)	Degradation of substrate protein IKZF1 (IKZF1)	Degradation of substrate protein IKZF2 (IKZF2)	Degradation of substrate protein IKZF3 (IKZF3)	Degradation of substrate protein CDK4 (CDK4)	Degradation of substrate protein CDK6 (CDK6)	also measured
60 to 80%	80 to 100%	–	COc1cc(N2CCC(N3CCN(Cc4ccc5c(c4)CN(C4CCC(=O)NC4=O)C5=S)CC3)CC2)ccc1Nc1ncc(Cl)c(Nc2ccccc2P(C)(C)=O)n1 (stereo not shown) [GT-09425, 3-(5-((4-(1-(4-((5-chloro-4-((2-(dimethylphosphoryl)phenyl)amino)pyrimidin-2-yl)amino)-3-methoxyphenyl)piperidin-4-yl)piperazin-1-yl)methyl)-1-thioxoisoindolin-2-yl)piperidine-2,6-dione]	–	–	–	–	–	–	–	–	inhibition at 0.01 µM (A375; A-375, 10 nM, read-out: Inhibition Rate at 10 nM (%)): 20 to 30%; inhibition at 0.5 µM (A375; A-375, 500 nM, read-out: Inhibition Rate at 500 nM (%)): 50 to 60%; inhibition at 0.01 µM (CFPAC-1; 10 nM, read-out: Inhibition Rate at 10 nM (%)): 10 to 20%; inhibition at 0.5 µM (CFPAC-1; 500 nM, read-out: Inhibition Rate at 500 nM (%)): 60 to 70%
–	–	< 500 nM	O=C1CCC(N2Cc3ccccc3C2=S)C(=O)N1 (stereo not shown) [GT-05563, 3-(1-thioxoisoindolin-2-yl)piperidine-2,6-dione]	A (0% ≤ substrate protein remaining % ≤ 80%)	B (80%< substrate protein remaining %≤ 100%)	A (0% ≤ substrate protein remaining % ≤ 80%)	A (0% ≤ substrate protein remaining % ≤ 80%)	A (0% ≤ substrate protein remaining % ≤ 80%)	A (0% ≤ substrate protein remaining % ≤ 80%)	–	–	–
–	–	< 500 nM	O=C1CCC(N2Cc3cc(CO)ccc3C2=S)C(=O)N1 (stereo not shown) [GT-06977, 3-(5-(hydroxymethyl)-1-thioxoisoindolin-2-yl)piperidine-2,6-dione]	B (80%< substrate protein remaining %≤ 100%)	B (80%< substrate protein remaining %≤ 100%)	B (80%< substrate protein remaining %≤ 100%)	B (80%< substrate protein remaining %≤ 100%)	B (80%< substrate protein remaining %≤ 100%)	A (0% ≤ substrate protein remaining % ≤ 80%)	–	–	inhibition at 0.5 µM (MM.1S; [2]): 35 to 40%; Inhibition Rate at 10 nM (%) (MM.1S; [3]): ln6

Continued, compound first:

SMILES	inhibition at 0.5 µM [1]	inhibition at 2 µM [1]	IC50 [1]	Degradation of substrate protein WEE1 (WEE1)	Degradation of substrate protein CK1α (CK1α)	Degradation of substrate protein GSPT1 (GSPT1)	Degradation of substrate protein IKZF1 (IKZF1)	Degradation of substrate protein IKZF2 (IKZF2)	Degradation of substrate protein IKZF3 (IKZF3)	Degradation of substrate protein CDK4 (CDK4)	Degradation of substrate protein CDK6 (CDK6)	also measured
CC(=O)c1c(C)c2cnc(Nc3ccc(N4CCN(Cc5cccc6c5CN(C5CCC(=O)NC5=O)C6=S)CC4)cn3)nc2n(C2CCCC2)c1=O (stereo not shown) [GT-08772, 3-(4-((4-(6-((6-acetyl-8-cyclopentyl-5-methyl-7-oxo-7,8-dihydropyrido[2,3-d]pyrimidin-2-yl)amino)pyridin-3-yl)piperazin-1-yl)methyl)-1-thioxoisoindolin-2-yl)piperidine-2,6-dione]	–	–	–	–	–	–	–	–	–	A (0% ≤ substrate protein remaining % ≤ 80%)	A (0% ≤ substrate protein remaining % ≤ 80%)	inhibition at 0.01 µM (MV-4-11; MV4-11, 10 nM, read-out: Inhibition Rate at 10 nM (%)): 30 to 40%; inhibition at 0.5 µM (MV-4-11; MV4-11, 500 nM, read-out: Inhibition Rate at 500 nM (%)): 40 to 50%
CN(C)C(=O)c1cc2cnc(Nc3ccc(N4CCN(Cc5ccc6c(c5)CN(C5CCC(=O)NC5=O)C6=S)CC4)cn3)nc2n1C1CCCC1 (stereo not shown) [GT-08765, 7-cyclopentyl-2-((5-(4-((2-(2,6-dioxopiperidin-3-yl)-1-thioxoisoindolin-5-yl)methyl)piperazin-1-yl)pyridin-2-yl)amino)-N,N-dimethyl-7H-pyrrolo[2,3-d]pyrimidine-6-carboxamide]	40 to 53%	80 to 100%	–	–	–	–	–	–	–	A (0% ≤ substrate protein remaining % ≤ 80%)	A (0% ≤ substrate protein remaining % ≤ 80%)	inhibition at 0.01 µM (MM.1S; 10 nM, Table I-9, CDK4/6 inhibitors): 30 to 40%; inhibition at 0.5 µM (MM.1S; Table I-9, CDK4/6 inhibitors): 40 to 50%
CC(=O)c1c(C)c2cnc(Nc3ccc(N4CCN(Cc5ccc6c(c5)CN(C5CCC(=O)NC5=O)C6=S)CC4)cn3)nc2n(C2CCCC2)c1=O (stereo not shown) [GT-08766, 3-(5-((4-(6-((6-acetyl-8-cyclopentyl-5-methyl-7-oxo-7,8-dihydropyrido[2,3-d]pyrimidin-2-yl)amino)pyridin-3-yl)piperazin-1-yl)methyl)-1-thioxoisoindolin-2-yl)piperidine-2,6-dione]	53 to 60%	80 to 100%	–	–	–	–	–	–	–	A (0% ≤ substrate protein remaining % ≤ 80%)	A (0% ≤ substrate protein remaining % ≤ 80%)	–
O=C1CCC(N2Cc3c(CO)cccc3C2=S)C(=O)N1 (stereo not shown) [GT-06981, 3-(4-(hydroxymethyl)-1-thioxoisoindolin-2-yl)piperidine-2,6-dione]	–	–	< 500 nM	B (80%< substrate protein remaining %≤ 100%)	B (80%< substrate protein remaining %≤ 100%)	B (80%< substrate protein remaining %≤ 100%)	B (80%< substrate protein remaining %≤ 100%)	B (80%< substrate protein remaining %≤ 100%)	A (0% ≤ substrate protein remaining % ≤ 80%)	–	–	inhibition at 0.01 µM (MM.1S; [3]): 20 to 30%; inhibition at 0.5 µM (MM.1S; [2]): 35 to 40%
CN(C)C(=O)c1cc2cnc(Nc3ccc(N4CCN(Cc5cccc6c5CN(C5CCC(=O)NC5=O)C6=S)CC4)cn3)nc2n1C1CCCC1 (stereo not shown) [GT-08771, 7-cyclopentyl-2-((5-(4-((2-(2,6-dioxopiperidin-3-yl)-1-thioxoisoindolin-4-yl)methyl)piperazin-1-yl)pyridin-2-yl)amino)-N,N-dimethyl-7H-pyrrolo[2,3-d]pyrimidine-6-carboxamide]	60 to 80%	80 to 100%	–	–	–	–	–	–	–	A (0% ≤ substrate protein remaining % ≤ 80%)	A (0% ≤ substrate protein remaining % ≤ 80%)	–
